Some test systems named below: K-562 leukemia; UACC-257 melanoma; BT-549 breast; RXF 393 renal; EKVX NSCLC; LOX IMVI melanoma; HOP-62 NSCLC; DU-145 prostate; HCC-2998 colon; A498 renal.
Holding throughout (assay): growth of human tumour cells (NCI), 48 h

The record followed here is PubChem BioAssay (NCI).

Each structure is given as a SMILES string.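 Five compound concentrations were applied to cells in 96-well plates for 48 hours; endpoints were derived by simple linear interpolation of the resulting dose-response curve. The concentration for 50% growth inhibition is given as GI50. At the TGI there is no net growth.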

For the compound `CC1OC(OC2C(OC3C[C@@]4(C)C(C[C@H](O)[C@H]5[C@H](C6(C)CCC(C(C)(C)O)O6)CCC54C)[C@]4(C)CC[C@@H](O)C(C)(C)C34)OC(CO)C(O)C2O)C(O)C(O)C1O` (stereo not given in full) (tested in a mixture with another compound), the TGI with K-562 leukemia, in the assay on UACC-257 melanoma, with BT-549 breast, in the assay on RXF 393 renal, in the assay with EKVX NSCLC and in the assay with LOX IMVI melanoma was above 100 µM throughout. Moreover, the TGI with HOP-62 NSCLC, with DU-145 prostate, with HCC-2998 colon and in the assay on A498 renal was above 100 µM in each case.

As to `CN(C)CCCNC(=O)c1cc2c3ccccc3[nH]c2c2ncccc12`, the GI50 is 27.6 µM in the assay with K-562 leukemia; 15 µM in the assay with UACC-257 melanoma; 9.33 µM in the assay with BT-549 breast; 13.2 µM with RXF 393 renal; 15.3 µM with EKVX NSCLC; 8.34 µM with LOX IMVI melanoma. Further, the GI50 in the assay on HOP-62 NSCLC is 5.99 µM; with DU-145 prostate, 19.7 µM; in the assay with HCC-2998 colon it was 10.8 µM; in the assay with A498 renal it was 14.8 µM. The TGI is above 100 µM in the assay with K-562 leukemia; 32.4 µM with UACC-257 melanoma; 25.1 µM with BT-549 breast; 39 µM with RXF 393 renal; 85.4 µM in the assay with EKVX NSCLC; 23.8 µM in the assay with LOX IMVI melanoma. For the same compound, the TGI with HOP-62 NSCLC was 36.1 µM; with DU-145 prostate, above 100 µM; with HCC-2998 colon, 23.4 µM; in the assay with A498 renal, 31.7 µM.

For `CCN(CC)c1ccc(/C=C/C(=O)c2cccc(NS(C)(=O)=O)c2)cc1`, the GI50 was 3.47 µM in the assay with K-562 leukemia; 92.5 µM in the assay on UACC-257 melanoma; 4.67 µM with BT-549 breast; 58 µM with RXF 393 renal; 5.46 µM with EKVX NSCLC; 3.13 µM with LOX IMVI melanoma. Moreover, the GI50 is 27.6 µM with HOP-62 NSCLC, 7.2 µM in the assay on DU-145 prostate, above 100 µM in the assay with HCC-2998 colon and 5.39 µM in the assay with A498 renal. The TGI in the assay with K-562 leukemia, with UACC-257 melanoma, with BT-549 breast, in the assay on RXF 393 renal, with EKVX NSCLC and with LOX IMVI melanoma was above 100 µM throughout. In addition, the TGI with HOP-62 NSCLC, in the assay on DU-145 prostate, with HCC-2998 colon and with A498 renal was above 100 µM throughout.

Regarding `CC(=O)NNC(=O)c1nn(-c2ccc(Cl)cc2)cc1OC(C)=O`, the GI50 with K-562 leukemia is 32.9 µM; in the assay with UACC-257 melanoma, 87.8 µM; in the assay on BT-549 breast, 28.8 µM; in the assay with RXF 393 renal, 16.9 µM; in the assay with EKVX NSCLC, 23.7 µM; in the assay with LOX IMVI melanoma, 22.5 µM. In addition, the GI50 in the assay on HOP-62 NSCLC was 27.2 µM; with DU-145 prostate it was 18.7 µM; in the assay on HCC-2998 colon, 21.4 µM; with A498 renal it was 22.2 µM. Also, the TGI with K-562 leukemia was above 100 µM; in the assay on UACC-257 melanoma, above 100 µM; with BT-549 breast, above 100 µM; in the assay on RXF 393 renal, above 83.2 µM; in the assay on EKVX NSCLC, above 100 µM; with LOX IMVI melanoma, above 100 µM. Further, the TGI in the assay on HOP-62 NSCLC is above 100 µM; in the assay with DU-145 prostate, above 100 µM; in the assay with HCC-2998 colon it was above 100 µM; with A498 renal, 91.7 µM.

With `COc1ccc(N2CCN(CC(=O)N3CCN(c4nnc(-c5ccccc5)c(-c5ccccc5)n4)CC3)CC2)cc1`, the GI50 in the assay with K-562 leukemia was 5.6 µM; in the assay on UACC-257 melanoma, 27.1 µM; in the assay with BT-549 breast, 3.47 µM; with RXF 393 renal, 7.88 µM; in the assay on EKVX NSCLC it was 4.47 µM; with LOX IMVI melanoma, 11.6 µM. The GI50 in the assay with HOP-62 NSCLC was above 67.4 µM; in the assay with DU-145 prostate it was 16.2 µM; in the assay on HCC-2998 colon, 9.73 µM; in the assay with A498 renal, 3.35 µM. The TGI in the assay on K-562 leukemia was above 100 µM; with UACC-257 melanoma, above 90.6 µM; with BT-549 breast, 33 µM; in the assay on RXF 393 renal, above 61.2 µM; with EKVX NSCLC it was above 100 µM; in the assay on LOX IMVI melanoma, above 100 µM. The TGI in the assay with HOP-62 NSCLC is above 100 µM; in the assay with DU-145 prostate it was above 100 µM; in the assay with HCC-2998 colon, above 100 µM; in the assay on A498 renal, 85.6 µM.

As to `O=C(Cc1ccc(/C=C/C(=O)c2ncc[nH]2)cc1)Nc1ccc(Br)cc1`, the GI50 is 0.745 µM with K-562 leukemia; 6.64 µM in the assay on UACC-257 melanoma; 1.55 µM with BT-549 breast; 2.4 µM in the assay on RXF 393 renal; 4.58 µM in the assay with EKVX NSCLC; 0.889 µM with LOX IMVI melanoma. Besides, the GI50 in the assay with HOP-62 NSCLC was 2.49 µM; with DU-145 prostate it was 1.1 µM; in the assay on HCC-2998 colon, 2.46 µM; in the assay on A498 renal, 4.72 µM. The TGI was above 16.7 µM in the assay on K-562 leukemia; above 16.7 µM with UACC-257 melanoma; 4.04 µM with BT-549 breast; 4.82 µM in the assay on RXF 393 renal; above 16.7 µM in the assay with EKVX NSCLC; 3.12 µM with LOX IMVI melanoma. The TGI in the assay with HOP-62 NSCLC amounted to 5.73 µM; in the assay on DU-145 prostate, 4.89 µM; in the assay with HCC-2998 colon it was 4.96 µM; in the assay on A498 renal, 13.7 µM.

Regarding `Cc1cc[c-]cc1.Fc1c[c-]c(-c2ccccn2)c(F)c1.N#CCC[PH+](CCC#N)c1ccccc1.[Pt+2]`, the GI50 was 3.48 µM with K-562 leukemia; 1.9 µM with UACC-257 melanoma; 3.22 µM in the assay on BT-549 breast; 2.07 µM in the assay with RXF 393 renal; 3.09 µM in the assay with EKVX NSCLC; 2.26 µM with LOX IMVI melanoma. Also, the GI50 is 4.93 µM with HOP-62 NSCLC, 2.46 µM in the assay on DU-145 prostate, 3.22 µM with HCC-2998 colon and 2.18 µM with A498 renal. Also, the TGI with K-562 leukemia was above 100 µM; in the assay with UACC-257 melanoma, 4.41 µM; in the assay on BT-549 breast it was 31.6 µM; with RXF 393 renal, 4.78 µM; in the assay on EKVX NSCLC it was 22.3 µM; in the assay with LOX IMVI melanoma, 5.18 µM. Besides, the TGI in the assay on HOP-62 NSCLC amounted to 31.7 µM; with DU-145 prostate, 6.22 µM; in the assay with HCC-2998 colon it was 10.5 µM; with A498 renal it was 8.5 µM.
